Test results taken from article PMC8399847, “Hybrid Quinolinyl Phosphonates as Heterocyclic Carboxylate Isosteres: Synthesis and Biological Evaluation against Topoisomerase 1B (TOP1B)” (Pharmaceuticals, 2021).

Experiments:
L. infantum amastigotes = test: Ex vivo murine splenic explant culture, intramacrophage amastigotes; format: cell-based; conditions: Leishmania infantum, Hec50; intramacrophage amastigotes in splenic explants, 96 h, EC50 ± SD
Experimental: The effect of the new quinolinylphosphonate derivatives 7 synthesized was assessed on both free-living promastigotes and intramacrophage amastigotes of L. infantum as it is described in experimental protocols. Primary cultures of intramacrophage amastigotes were obtained from splenic explants from 6-weeks infected Balb/c mice with L. infantum-iRFP promastigotes. The infrared fluorescence emitted by both stage forms of the parasite was used as viability criterium, using 0.5% DMSO as negative control (100% viability) and […] AMB as a positive control (0% viability).
The EC50 values of compounds against the amastigote forms were calculated using a cell suspension obtained from spleens extracted from BALB/c mice. Mice had been infected previously with iRFP L. infantum metacyclic promastigotes and sacrificed five weeks after infection. To obtain the cell suspension containing amastigotes, spleens washed with cold phosphate-buffered saline (PBS), were cut into pieces, and incubated with 5 mL of 2 mg/mL collagenase D (Sigma, Darmstadt, Germany), which was prepared in buffer (10 mM HEPES, pH 7.4, 150 mM NaCl, 5 mM KCl, 1 mM MgCl2 and 1.8 mM CaCl2) for 20 min. Subsequently, these cells were passed through a 100 µm cell strainer, collected by centrifugation (500× g for 7 min at 4 °C), washed twice with PBS, and suspended in RPMI medium (Gibco, Thermo Fisher Scientific, MA, USA) supplemented with 10 mM HEPES, 1 mM sodium pyruvate, 1xRPMI 1640 vitamin mix, 10% (v/v) FBS, 50 U/mL penicillin and 50 µg/mL streptomycin, at 37 °C under a 5% CO2 atmosphere.
To assay the effect of the different compounds against amastigotes, which infect splenic cells, these cells were seeded to confluence into 384-well black optical bottom plates (Thermo Scientific, Waltham, MA, USA) in addition to different concentrations of compound to each well. The viability of amastigotes was calculated by recording their fluorescence at 708 nm in an Odyssey (Li-Cor, NE, USA) infrared imaging system, after 96 h of exposure. Plots of the infrared fluorescence against the concentrations of tested compounds were fitted by nonlinear analysis using the Sigma Plot 10.1 statistical package and used to calculate EC50 values. As well as promastigotes viability, the assays were performed in triplicate.

[1] = test system: leishmanial TOP1B (LTOP1B); test: LTOP1B relaxation activity assay; format: biochemical, Leishmania; conditions: 100 µM of compound, 1 min
Experimental: The inhibition of relaxation activity of LTOP1B by the compounds was tested at 100 µM. The reactions were performed for 1 min in the way described in the experimental protocols section. The percentage of inhibition was calculated by measuring the intensity of the band corresponding to the supercoiled DNA when the different DNA topoisomers were separated in an agarose gel.
Purification of leishmanial DNA topoisomerase 1B (LTOP1B) was carried out as reported previously. Shortly, LTOP1B was purified using the deficient in TOP1 activity yeast strain, EKY3 MAT α ura3–52 his3Δ20ting, from the union of the bicistronic expression vector pESC-URA to both subunits of LTOP1B. The yeast cells were grown in a yeast synthetic drop-out medium without uracil (Sigma) supplemented with 2% raffinose (w/v) to OD600: 0.8–1 and induced for 10 h with 2% galactose (w/v). After that, the cells were harvested, washed with cold TEEG buffer (50 mM Tris–HCl pH 7.4, 1 mM EDTA, 1 mM EGTA, 10% glycerol), resuspended in 15 mL of 1× TEEG buffer supplemented with 0.2 M KCl and a protease inhibitors cocktail (Thermo Scientific, Waltham, MA, USA) and lysed. Protein extract obtained was loaded on a 5 mL Heparin Sepharose column (GE Healthcare, MA, USA). LTOP1B enzyme was eluted at 4 °C with a discontinuous gradient of KCl (0.2, 0.4, 0.6 M) in TEEG buffer.
Leishmanial TOP1B activity was tested by the relaxation of supercoiled plasmid DNA assay. Each reaction contained: one unit of purified LTOP1B enzyme, 100 µM of each compound, 0.5 μg of supercoiled pSK DNA, 10 mM Tris-HCl buffer pH 7.5, 5 mM MgCl2, 0.1 mM EDTA, 15 µg/mL bovine serum albumin, and 150 mM KCl. The final volume of each reaction was 20 µL. Reaction mixtures were incubated for 1 min at 37 °C and stopped by the addition of a 4 µL loading buffer (5% sarkosyl, 0.12% bromophenol blue, 25% glycerol). The DNA topoisomers were resolved in 1% agarose gels by electrophoresis in 0.1 M Tris borate EDTA buffer (pH 8.0) at 2 V/cm for 16 h and visualized with UV illumination after ethidium bromide (0.5 μg/mL) staining. The percentage of inhibition was calculated by measuring the intensity of the band corresponding to the supercoiled DNA after separating and staining the different DNA topoisomers. This analysis was performed using the GeneTools from Syngene software (Version 4.3.8, MD, USA).

[2] = test system: SKOV3 (human ovarian carcinoma); test: CCK-8 cytotoxicity assay, SKOV3; format: cell-based; conditions: SK-OV-3, 48 h, read-out: Cytotoxicity IC50 Ovarian SKOV3
Experimental: The cytotoxicity of the newly synthesized quinolinylphosphonates 7 was evaluated in vitro by testing their antiproliferative activities against several human cancer cell lines: A549 (human lung adenocarcinoma cells), SKOV3 (human ovarian carcinoma), and HEK293 (human embryonic kidney). In order to analyze the selective cytotoxicity facing exclusively cancerous cell lines, cytotoxicity against non-cancerous cell lines (MRC-5, lung fibroblast cells) was also evaluated. Cell counting kit (CCK-8) assay was employed to assess growth inhibition and, cell proliferation inhibitory activities of compounds that are listed in Table 1 as IC50 values. […] According to the data presented in Table 1, in general, all these phosphorated derivatives present higher selective cytotoxicity in the A549 cell line than in the other two cell lines, SKOV3 and HEK293, although slight differences are observed compared to human ovarian carcinoma (SKOV3).
Cells were cultured according to the supplier’s instructions, A549 (ATCC® CCL-185), SKOV3 (ATCC® HTB-77), HEK293 (CLS GmbH), MRC-5 (ATCC® CCL-171™). Cells were seeded in 96-well plates at a density of 2–2.5 × 10^3 cells per well and incubated overnight in 0.1 mL of media supplied with 10% Fetal Bovine Serum (Lonza, Basel, Switzerland) in a 5% CO2 incubator at 37 °C. On day 2, drugs (concentration between 0.5–50 μM) were added and samples were incubated for 48 h. After treatment, 10 μL of cell counting kit-8 was added to each well for an additional 2 h incubation at 37 °C. The absorbance of each well was determined by an Automatic Elisa Reader System at 450 nm wavelength. CPT was purchased from Sigma-Aldrich and used as a positive control.

SMILES | EC50 (L. infantum amastigotes) [µM] | LTOP1B Inhibition [1] [%] | IC50 [2] [µM]
CCOP(=O)(OCC)c1cccc2c(-c3ccccc3)cc(-c3ccccc3)nc12 [7a, Diethyl (2,4-diphenylquinolin-8-yl)phosphonate] | 4.03 ± 0.3 | 58.87 | 9.3 ± 0.76
CCOP(=O)(OCC)c1cccc2c(-c3ccccc3)cc(-c3ccc(F)cc3)nc12 [7b, Diethyl (4-Phenyl-2-(fluorophenyl)quinolin-8-il) phosphonate] | 14.6 ± 1.3 | 24.43 | 5.29 ± 1.42
CCOP(=O)(OCC)c1cccc2c(-c3ccccc3)cc(-c3ccc(OC)cc3)nc12 [7c, Diethyl (2-(4-methoxyphenyl)-4-phenylquinolin-8-yl)phosphonate] | 8.23 ± 1.7 | 45.45 | 25 ± 3.6
CCOP(=O)(OCC)c1cccc2c(-c3ccccc3)cc(-c3ccccc3OC)nc12 [7d, Diethyl (2-(2-methoxyphenyl)-4-phenylquinolin-8-yl)phosphonate] | 19.5 ± 2.38 | 46.41 | 19.4 ± 1.6
CCOP(=O)(OCC)c1cccc2c(-c3ccccc3)cc(-c3ccc4ccccc4c3)nc12 [7e, Diethyl (2-(naphthalen-2-yl)-4-phenylquinolin-8-yl)phosphonate] | 20.4 ± 5.62 | 18.36 | 1.33 ± 0.76
CCOP(=O)(OCC)c1cccc2c(-c3ccccc3)cc(-c3cccc4ccccc34)nc12 [7f, Diethyl (2-(naphthalen-1-yl)-4-phenylquinolin-8-yl)phosphonate] | 19.7 ± 2.39 | 7.5 | 4.54 ± 0.52
CCOP(=O)(OCC)c1cccc2c(-c3ccc(F)cc3)cc(-c3ccccc3)nc12 [7g] | 11.9 ± 5.17 | 16.49 | 9.29 ± 1.79
CCOP(=O)(OCC)c1cccc2c(-c3ccc(F)cc3)cc(-c3ccc(F)cc3)nc12 [7h, Diethyl (2,4-bis(4-fluorophenyl)quinolin-8-yl)phosphonate] | 24.2 ± 2.37 | 22.44 | 9.79 ± 0.59
CCOP(=O)(OCC)c1cccc2c(-c3ccc(F)cc3)cc(-c3ccc(F)c(F)c3)nc12 [7i, Diethyl (2-(3,4-difluorophenyl)-4-(4-fluorophenyl)quinolin-8-yl)phosphonate] | 13.4 ± 5.53 | 54.01 | 37.6 ± 9.1
CCOP(=O)(OCC)c1cccc2c(-c3ccc(C)cc3)cc(-c3ccc(F)cc3)nc12 [7j, Diethyl (2-(4-fluorophenyl)-4-(p-tolyl)quinolin-8-yl)phosphonate] | 9.8 ± 0.48 | 41.21 | 10.2 ± 0.38
CCOP(=O)(OCC)c1cccc2c(-c3ccc(C)cc3)cc(-c3ccc(F)c(F)c3)nc12 [7k, Diethyl (2-(3,4-difluorophenyl)-4-(p-tolyl)quinolin-8-yl)phosphonate] | 26.2 ± 3.65 | 77.02 | 10.6 ± 1.13
CC(C)OP(=O)(OC(C)C)c1cccc2c(-c3ccccc3)cc(-c3ccc(F)cc3)nc12 [7l, Diisopropyl (2-(4-fluorophenyl)-4-phenylquinolin-8-yl)phosphonate] | 19.5 ± 2.23 | 3.55 | 18.7 ± 1.98
CC(C)OP(=O)(OC(C)C)c1cccc2c(-c3ccccc3)cc(-c3ccc(F)c(F)c3)nc12 [7m, Diisopropyl (2-(3,4-difluorophenyl)-4-phenylquinolin-8-yl)phosphonate] | 10.2 ± 1.34 | 5.41 | 12.1 ± 1.7
CC(C)OP(=O)(OC(C)C)c1cccc2c(-c3ccc(F)cc3)cc(-c3ccc(F)cc3)nc12 [7n, Diisopropyl (2,4-bis(4-fluorophenyl)quinolin-8-yl)phosphonate] | 5.52 ± 1.11 | 43.31 | 19.8 ± 3.83
CC(C)OP(=O)(OC(C)C)c1cccc2c(-c3ccc(F)cc3)cc(-c3ccc(F)c(F)c3)nc12 [7o, Diisopropyl (2-(3,4-difluorophenyl)-4-(4-fluorophenyl)quinolin-8-yl)phosphonate] | 19.7 ± 1.73 | 73.27 | 22.1 ± 4.47
Cc1ccc(-c2cc(-c3ccc(F)cc3)nc3c(P(=O)(OC(C)C)OC(C)C)cccc23)cc1 [7p, Diisopropyl (2-(4-fluorophenyl)-4-(p-tolyl)quinolin-8-yl)phosphonate] | 24.3 ± 2.53 | 41.62 | 12.1 ± 1.68
Cc1ccc(-c2cc(-c3ccc(F)c(F)c3)nc3c(P(=O)(OC(C)C)OC(C)C)cccc23)cc1 [7q, Diisopropyl (2-(3,4-difluorophenyl)-4-(p-tolyl)quinolin-8-yl)phosphonate] | 13.9 ± 3.65 | 52.65 | 4.67 ± 1.5
CCOP(=O)(OCC)c1ccc2nc(-c3ccc(F)cc3)cc(-c3ccccc3)c2c1 [7r, Diethyl (2-(4-fluorophenyl)-4-phenylquinolin-6-yl)phosphonate] | 29.2 ± 14 | 1.94 | 3.03 ± 1.24
CCOP(=O)(OCC)c1ccc2nc(-c3ccc(F)c(F)c3)cc(-c3ccccc3)c2c1 [7s, Diethyl (2-(3,4-difluorophenyl)-4-phenylquinolin-6-yl)phosphonate] | 14.2 ± 2.83 | 14.56 | > 50
CCOP(=O)(OCC)c1ccc2nc(-c3ccc(F)cc3)cc(-c3ccc(F)cc3)c2c1 [7t, Diethyl (2,4-bis(4-fluorophenyl)quinolin-6-yl)phosphonate] | 31.5 ± 2.71 | 37.86 | > 50
CCOP(=O)(OCC)c1ccc2nc(-c3ccc(F)c(F)c3)cc(-c3ccc(F)cc3)c2c1 [7u, Diethyl (2-(3,4-difluorophenyl)-4-(4-fluorophenyl)quinolin-6-yl)phosphonate] | 26.4 ± 2.2 | 50.24 | > 50
